Test results: patent US20250243488A1, “METHODS OF MODULATING PROGRANULIN EXPRESSION USING ANTISENSE OLIGONUCLEOTIDES TARGETING REGULATORY RNAS” (Camp4 Therapeutics Corporation, priority 2022, published 2025)
Oligonucleotides are written 5' to 3', each unit as a sugar letter and its base; * is a phosphorothioate linkage, no mark a phosphodiester; rarer units and linkages stand in square brackets, end groups in braces. Plain capitals give the bases only. e = 2'-O-(2-methoxyethyl) (MOE); l = locked nucleic acid (LNA); [5mC] = 5-methylcytosine

What was measured:
mGrn mRNA = mGrn mRNA qPCR in Neuro2a cells transfected with ASOs; format: cell-based, mouse; conditions: for mGRN mRNA FC: Table 14, 100 nM, 48 hours, normalized to sNTC3; for 40 nM FC (mGrn mRNA) / 80 nM FC (mGrn mRNA) / 160 nM FC (mGrn mRNA): transfection
Description: 57 ASOs targeting the Grn promoter (− strand) were screened in Neuro2a cells. Neuro2a cells were transfected with 100 nM of each of the ASOs listed in Table 14 and cells were harvested 48 hours later for Grn mRNA quantification using qPCR. Housekeeping genes for normalization were Gapdh and Ppia. Relative Grn mRNA levels were normalized to mRNA extracted from cells treated with sNTC3 (steric nontargeting control).
Next, 26 ASOs based on parent ASOs CO-3544 and CO-3595 were designed with different modifications and base walking. Neuro2a cells were transfected with either […] or 160 nM of each of the ASOs listed in Table 15, and cells were harvested 48 hours later for mGrn mRNA quantification using qPCR. As controls, cells were treated with sNTC3 or no ASO. Housekeeping genes for normalization were Gapdh and Ppia. Relative Grn mRNA levels were normalized to mRNA extracted from cells treated with sNTC3.
CO-3544 was modified to include PO/PS bonds and the efficacy in upregulating mGrn mRNA was determined.
Similarly, CO-3595 was modified to include varying PO/PS internucleotide bonds and the efficacy of these ASOs in upregulating mGrn mRNA was determined in Neuro2A cells.

GRN mRNA = GRN mRNA qPCR in SK-N-AS cells transfected with ASOs; format: cell-based, human; conditions: SK-N-AS
Outline: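 Human neuroblastoma SK-N-AS cells transfected with ASOs at increasing concentrations (20 to 160 nM in initial titrations); GRN mRNA quantified by qPCR after 48 hours. Normalized to GAPDH and PPIA, fold change relative to steric non-targeting control ASO(s) (sNTC/CO-1589, with CO-3772 and CO-1929 in some series).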

[1] = Table 4, normalized to CO-3772 and CO-1589 (sNTC1)
[2] = Table 10, 48 hours, normalized to CO-1589
[3] = Table 13, normalized to CO-1589

CO-3578: ASO targeting the Grn promoter (− strand) (antisense eT*eT*e[5mC]*e[5mC]*eA*eA*e[5mC]*eT*eG*eG*eT*eT*eT*e[5mC]*eG*eA*eG*eT*e[5mC]*e[5mC])
mGRN mRNA FC (mGrn mRNA; Neuro2a): 1.0 FC

CO-3551: ASO targeting the Grn promoter (− strand) (antisense eG*e[5mC]*eG*eT*eG*eA*eT*eG*eG*e[5mC]*eT*eG*eA*eG*eT*e[5mC]*e[5mC]*e[5mC]*eT*eG)
mGRN mRNA FC (mGrn mRNA; Neuro2a): 1.5 FC

CO-5304: CO-3595 modified to include varying PO/PS internucleotide bonds (antisense e[5mC]*e[5mC]*eT*eG*eAeAe[5mC]eTeGeTeAeTeGeGe[5mC]eTeG*eA*e[5mC]*e[5mC])
40 nM FC (mGrn mRNA) (mGrn mRNA; Table 16, Neuro2A): 1.4 FC
80 nM FC (mGrn mRNA) (mGrn mRNA; Table 16, Neuro2A): 1.6 FC
160 nM FC (mGrn mRNA) (mGrn mRNA; Table 16, Neuro2A): 2.2 FC

CO-3554: ASO targeting the Grn promoter (− strand) (antisense eG*eG*e[5mC]*eT*e[5mC]*eT*eT*eT*e[5mC]*eT*e[5mC]*eT*eT*eT*e[5mC]*eG*eG*eA*e[5mC]*eG)
mGRN mRNA FC (mGrn mRNA; Neuro2a): 1.2 FC

CO-3569: ASO targeting the Grn promoter (− strand) (antisense eG*eG*eA*eA*eT*eG*eT*eG*eA*eA*e[5mC]*eT*eG*eA*eG*eT*eA*eG*eA*eA)
mGRN mRNA FC (mGrn mRNA; Neuro2a): 1.2 FC

CO-3587: ASO targeting the Grn promoter (− strand) (antisense eT*eA*e[5mC]*e[5mC]*e[5mC]*eA*eA*eG*eG*eA*eA*eA*eG*eG*eA*eT*eT*e[5mC]*eA*e[5mC])
mGRN mRNA FC (mGrn mRNA; Neuro2a): 1.9 FC

CO-3562: ASO targeting the Grn promoter (− strand) (antisense eG*e[5mC]*e[5mC]*eT*eG*eT*eG*e[5mC]*eA*eA*eT*eT*eG*eA*eGeG*eG*eT*e[5mC]*e[5mC])
mGRN mRNA FC (mGrn mRNA; Neuro2a): 1.1 FC

CO-3572: ASO targeting the Grn promoter (− strand) (antisense eG*e[5mC]*e[5mC]*eG*e[5mC]*e[5mC]*eA*eG*eA*eA*e[5mC]*e[5mC]*e[5mC]*eA*eA*eA*e[5mC]*e[5mC]*eA*eG)
mGRN mRNA FC (mGrn mRNA; Neuro2a): 1.3 FC

CO-5295: CO-3544 modified to include PO/PS bonds (antisense eG*eT*eT*e[5mC]*eT*e[5mC]*e[5mC]*e[5mC]*eT*eA*eG*e[5mC]*eTeGeTeGeT*eA*eG*eT)
40 nM FC (mGrn mRNA) (mGrn mRNA; Table 15, Neuro2a): 1.1 FC
80 nM FC (mGrn mRNA) (mGrn mRNA; Table 15, Neuro2a): 1.3 FC
160 nM FC (mGrn mRNA) (mGrn mRNA; Table 15, Neuro2a): 1.4 FC

CO-3581: ASO targeting the Grn promoter (− strand) (antisense e[5mC]*eG*e[5mC]*e[5mC]*e[5mC]*eT*eT*eG*eA*eA*e[5mC]*e[5mC]*eT*eT*eT*eA*eT*eT*eA*eG)
mGRN mRNA FC (mGrn mRNA; Neuro2a): 1.1 FC

CO-3584: ASO targeting the Grn promoter (− strand) (antisense eG*e[5mC]*eT*eT*e[5mC]*eA*eA*eT*eT*eT*eA*eA*eT*eG*e[5mC]*eA*eG*eT*eG*e[5mC])
mGRN mRNA FC (mGrn mRNA; Neuro2a): 1.1 FC

CO-3575: ASO targeting the Grn promoter (− strand) (antisense eG*eT*eA*eA*eA*e[5mC]*eG*eA*e[5mC]*e[5mC]*eT*eT*eG*eA*eA*e[5mC]*eG*e[5mC]*eG*eT)
mGRN mRNA FC (mGrn mRNA; Neuro2a): 1.2 FC

CO-4124: GRN paRNA-targeting ASO; longer ASO related to CO-3423 (antisense eG*eA*e[5mC]*eT*eT*eG*eG*eG*eA*eG*eT*eG*eG*eT*eG*eA*e[5mC]*eT*eG*eA)
30 nM FC (GRN mRNA) (GRN mRNA; [1]): 1.2 FC
60 nM FC (GRN mRNA) (GRN mRNA; [1]): 1.7 FC
120 nM FC (GRN mRNA) (GRN mRNA; Table 4, 120 nM, normalized to CO-3772 and CO-1589 (sNTC1)): 1.7 FC
hGRN mRNA FC (GRN mRNA; Table 9, 120 nM, 48 hours post-transfection, normalized to CO-1589): 1.3 FC
3.75 nM FC (GRN mRNA) (GRN mRNA; Table 10, 3.75 nM, 48 hours, normalized to CO-1589): 1.0 FC
7.5 nM FC (GRN mRNA) (GRN mRNA; Table 10, 7.5 nM, 48 hours, normalized to CO-1589): 1.0 FC
15 nM FC (GRN mRNA) (GRN mRNA; Table 10, 15 nM, 48 hours, normalized to CO-1589): 1.0 FC
30 nM FC (GRN mRNA) (GRN mRNA; [2]): 1.2 FC
60 nM FC (GRN mRNA) (GRN mRNA; [2]): 1.4 FC
120 nM FC (GRN mRNA) (GRN mRNA; Table 10, 120 nM, 48 hours, normalized to CO-1589): 1.9 FC

CO-6414: ASO based on parent ASOs CO-4363 and CO-4364 (antisense eG*eG*eA*l[5mC]*eT*lT*eG*lG*eG*lA*eG*lT*eG*lG*eT*lG*eA*l[5mC]*eT*eG*eA)
30 nM FC (GRN mRNA) (GRN mRNA; [3]): 1.6 FC
60 nM FC (GRN mRNA) (GRN mRNA; [3]): 1.4 FC
120 nM FC (GRN mRNA) (GRN mRNA; Table 13, 120 nM, normalized to CO-1589): 1.3 FC
